Measurements as given in paper PMC4605392 (The international journal of biochemistry & cell biology, 2010).
“And” between values parts separate entries of the source, which are not always exact repeats. Identical values can stand only once. Counter-ions that a name gives are not always drawn. Like-named read-outs stand apart in the source and are kept apart here.

Columns and labels:
[1] = target: [^3H]imipramine binding sites at the human α4β2 AChR (Homo sapiens, UniProt P17787+P43681); settings: for ΔG^20: calculated from Ki, Eq. (4), 293 K
human α4β2 AChR = human α4β2 AChR (Homo sapiens, UniProt P17787+P43681); experiment: cell-based; type: cell-based
[2] = therapeutic doses, ref Glotzbach and Preskorn, 1982; cited from earlier work
hα4β2 AChR [3] = target: T1, hα4β2 AChR (Homo sapiens, UniProt P17787+P43681); experiment: Thermodynamic parameters of imipramine binding; settings: for Ea (dissociation process): Arrhenius plot; for ΔH°: van't Hoff plot; for ΔG^20: Eq. (8); for ΔH^+ (enthalpy change of the transition state): Eq. (10)
hα4β2 AChR [4] = target: T1, hα4β2 AChR; type: binding; settings: for koff: 20 °C; for kon: kon = koff·Ka
hα4β2 AChR [5] = target: T1, hα4β2 AChR; experiment: Equilibrium binding of [3H]imipramine to HEK293-hα4β2 AChR membranes
[6] = ref Nangia et al., 1996; cited from earlier work
[7] = Ki, resting state, absence of k-BTx (no ligand)
[8] = resting state, absence of k-BTx (no ligand)
[9] = resting state, absence of k-BTx
[10] = desensitized state, presence of 1 μM (−)-cytisine
[11] = resting state, presence of k-BTx
[12] = Epibatidine treated column (desensitized state)
[13] = κ-BTx treated column (resting state)

## CN(C)CCC=C1c2ccccc2CCc2ccccc21 [Amitriptyline, amitriptyline hydrochloride]
[1]; [7]
  Ki: 1100 ± 100 nM
[1]; [8]
  nH (Hill coefficient): 0.98 ± 0.11
[1]; [9]
  ΔG^20: -7.96 ± 0.072 kcal/mol
Human α4β2 AChR
  IC50: 2200 ± 600 nM
  nH (Hill coefficient): 1.50 ± 0.08
[2]
  concentration in the rat brain: 1000 to 10000 nM

## CN(C)CCCN1c2ccccc2CCc2ccccc21 [Imipramine, Imipramine hydrochloride]
[1]; Ki, desensitized state, presence of 1 μM (−)-cytisine
  Ki: 970 ± 100 nM
[1]; [7]
  Ki: 1100 ± 100 nM
[1]; Ki, resting state, presence of 0.1 μM k-BTx
  Ki: 930 nM
[1]; [10]
  nH (Hill coefficient): 0.84 ± 0.07
[1]; desensitized state, presence of (−)-cytisine
  ΔG^20: -8.05 ± 0.048 kcal/mol
[1]; [8]
  nH (Hill coefficient): 0.73 ± 0.04
[1]; [9]
  ΔG^20: -7.98 ± 0.048 kcal/mol
[1]; [11]
  nH (Hill coefficient): 0.87 ± 0.07
Human α4β2 AChR
  IC50: 5400 ± 1200 nM
  nH (Hill coefficient): 1.39 ± 0.13
hα4β2 AChR [3]; [12]
  −TΔS°: -5.93 kcal/mol and -5.93 ± 0.382 kcal/mol
  Ea (dissociation process): 2.96 ± 0.263 kcal/mol
  ΔH°: -2.65 kcal/mol and -2.65 ± 0.382 kcal/mol
  ΔG^20: -8.58 ± 0.478 kcal/mol
  ΔH^+ (enthalpy change of the transition state): 2.37 ± 0.263 kcal/mol
hα4β2 AChR [3]; [13]
  −TΔS°: -3.85 ± 0.55 kcal/mol
  Ea (dissociation process): 4.54 ± 0.454 kcal/mol
  ΔH°: -4.76 ± 0.55 kcal/mol
  ΔG^20: -8.56 ± 0.693 kcal/mol
  ΔH^+ (enthalpy change of the transition state): 3.97 ± 0.454 kcal/mol
hα4β2 AChR [4]; [12]
  Ka: 2.52 ± 0.08 µM⁻¹
  koff: 0.076 ± 0.002 s⁻¹
  kon: 192000 ± 3000 M⁻¹ s⁻¹
hα4β2 AChR [4]; Epibatidine treated column (desensitized state), Eq. (4)
  ΔG^20: -8.58 ± 0.024 kcal/mol
hα4β2 AChR [4]; [13]
  Ka: 2.54 ± 0.07 µM⁻¹
  koff: 0.09 ± 0.001 s⁻¹
  kon: 229000 ± 8000 M⁻¹ s⁻¹

## CN(C)CCC=C1c2ccccc2COc2ccccc21 [Doxepin, doxepin hydrochloride]
[1]
  Ki: 2100 ± 200 nM
[1]; [8]
  nH (Hill coefficient): 0.73 ± 0.05
[1]; [9]
  ΔG^20: -7.6 ± 0.072 kcal/mol
Human α4β2 AChR
  IC50: 6800 ± 1600 nM
  nH (Hill coefficient): 1.32 ± 0.29

## [^3H]Imipramine
hα4β2 AChR [5]; HEK293-hα4β2 membranes, x-intersect of Rosenthal-Scatchard plot
  specific activity (Bmax, imipramine binding sites): 8.6 ± 0.5 pmol/mg protein
hα4β2 AChR [5]; resting/no ligand state, Rosenthal-Scatchard plot, 2 h at RT
  Kd: 830 ± 80 nM

## Clc1ccc(C2CC3CCC2N3)cn1 (racemic) [(±)-epibatidine, (±)-Epibatidine]
Human α4β2 AChR; activation of hα4β2 AChR, Ca2+ influx in HEK293-hα4β2 cells
  nH (Hill coefficient): 1.03 ± 0.04

## CNC1(C)C2CCC(C2)C1(C)C (racemic) [(±)-Mecamylamine, (±)-mecamylamine hydrochloride]
[1]; IC50, desensitized state, presence of 1 μM (−)-cytisine
  IC50: 209000 ± 34000 nM
[1]; IC50, resting state, presence of k-BTx
  IC50: 135000 ± 19000 nM
[1]; at maximum concentration tested, resting and desensitized states
  inhibition of specific [3H]imipramine binding: ~ 70%
[1]; [10]
  nH (Hill coefficient): 0.58 ± 0.06
[1]; [11]
  nH (Hill coefficient): 0.53 ± 0.05
Human α4β2 AChR
  IC50: 3000 ± 700 nM
  nH (Hill coefficient): 1.17 ± 0.12
[6]
  pKa: 11.4
